Patent publication US9302999B2, “Substituted triazoles as herbicides” (E. I. DU PONT DE NEMOURS AND COMPANY, priority 2012, dated 2016)

Assays:
Assay type in all cases: in vivo
[1] = test system: sedge, umbrella (small-flower umbrella sedge Cyperus difformis); assay: Test B flooded paddy: sedge, umbrella; details: Flood; 250 g ai/ha; applied to paddy water at 2-leaf stage; visually evaluated after 13 to 15 days
Experimental: (§1) Seeds selected from rice (Oryza sativa), sedge, umbrella (small-flower umbrella sedge Cyperus difformis), ducksalad (Heteranthera limosa), and barnyardgrass (Echinochloa crus-galli) were grown to the 2-leaf stage for testing. At time of treatment, test pots were flooded to 3 cm above the soil surface, treated by application of test compounds directly to the paddy water, and then maintained at that water depth for the duration of the test.
(§2) Treated plants and controls were maintained in a greenhouse for 13 to 15 days, after which time all species were compared to controls and visually evaluated. Plant response ratings, summarized in Table B, are based on a scale of 0 to 100 where 0 is no effect and 100 is complete control. A dash (-) response means no test result.

[2] = test system: velvetleaf (Abutilon theophrasti); assay: Test A pre-/postemergence: velvetleaf
In short: (§3)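 Injury was scored visually on a 0 (no effect) to 100 (complete control) scale versus untreated controls roughly ten days after treatment in the greenhouse. Compounds, formulated in surfactant-containing non-phytotoxic solvent, went on as soil-directed preemergence spray or postemergence to one- to two-leaf plants 2–10 cm tall.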

[3] = test system: foxtail, giant (giant foxtail, Setaria faberii); assay: Test A pre-/postemergence: foxtail, giant; details: for Foxtail, Giant plant response rating: Postemergence; for Plant response rating, Foxtail, Giant: Preemergence
In short: as §3

[4] = test system: barnyardgrass (Echinochloa crus-galli); assay: Test B flooded paddy: barnyardgrass; details: Flood; 250 g ai/ha; applied to paddy water at 2-leaf stage; visually evaluated after 13 to 15 days
In short: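 Response scored visually, 0–100 relative to controls, 13–15 days after the compound was applied into paddy water; plants were at the 2-leaf stage in pots kept flooded to 3 cm.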

[5] = test system: barnyardgrass (Echinochloa crus-galli); assay: Test A pre-/postemergence: barnyardgrass; details: for Barnyardgrass plant response rating: Postemergence; for Plant response rating, Barnyardgrass: Preemergence
In short: as §3

[6] = test system: crabgrass, large (large crabgrass, Digitaria sanguinalis); assay: Test A pre-/postemergence: crabgrass, large; details: for Crabgrass, Large plant response rating: Postemergence; for Plant response rating, Crabgrass, Large: Preemergence
In short: as §3

[7] = test system: pigweed (Amaranthus retroflexus); assay: Test A pre-/postemergence: pigweed
In short: as §3

[8] = test system: corn (Zea mays); assay: Test A pre-/postemergence: corn; details: for Corn plant response rating: Postemergence; for Plant response rating, Corn: Preemergence
In short: as §3

[9] = test system: ducksalad (Heteranthera limosa); assay: Test B flooded paddy: ducksalad; details: Flood; 250 g ai/ha; applied to paddy water at 2-leaf stage; visually evaluated after 13 to 15 days
Experimental: as §1, §2

[10] = test system: wheat (Triticum aestivum); assay: Test A pre-/postemergence: wheat
In short: as §3

[11] = test system: rice (Oryza sativa); assay: Test B flooded paddy: rice; details: Flood; 250 g ai/ha; applied to paddy water at 2-leaf stage; visually evaluated after 13 to 15 days
Experimental: as §1, §2

[12] = test system: morningglory (Ipomoea spp.); assay: Test A pre-/postemergence: morningglory
In short: as §3

[13] = Postemergence, 125 g ai/ha, 0 to 100 scale, 0 is no effect, 100 is complete control
[14] = Postemergence, 500 g ai/ha, visual rating on 0 to 100 scale (0 no effect, 100 complete control), approximately ten days
[15] = Preemergence, 125 g ai/ha, 0 to 100 scale (0 no effect, 100 complete control)
[16] = Preemergence, 500 g ai/ha, 0 to 100 scale, 0 is no effect, 100 is complete control
[17] = 125 g ai/ha, 0 to 100 scale, 0 is no effect, 100 is complete control
[18] = 500 g ai/ha, visual rating on 0 to 100 scale (0 no effect, 100 complete control), approximately ten days
[19] = 125 g ai/ha, 0 to 100 scale (0 no effect, 100 complete control)
[20] = 500 g ai/ha, 0 to 100 scale, 0 is no effect, 100 is complete control
[21] = Preemergence, 125 g ai/ha, 0 to 100 scale where 0 is no effect and 100 is complete control
[22] = Preemergence, 500 g ai/ha, 0 to 100 scale (0 no effect, 100 complete control)
[23] = 125 g ai/ha, 0 to 100 scale where 0 is no effect and 100 is complete control
[24] = 500 g ai/ha, 0 to 100 scale (0 no effect, 100 complete control)

## Cc1nn(-c2ccc(F)c(F)c2)nc1Cc1ccnc(C(F)(F)F)c1 [Compound 55]
[1]
  Plant response rating, Sedge, Umbrella (0 to 100 scale, 0 is no effect, 100 is complete control): 100
[2]; [13]
  Velvetleaf plant response rating: 100
[2]; [14]
  Velvetleaf plant response rating: 100
[2]; [15]
  Plant response rating, Velvetleaf: 40
[2]; [16]
  Plant response rating, Velvetleaf: 70
[3]; [17]
  Foxtail, Giant plant response rating: 90
[3]; [18]
  Foxtail, Giant plant response rating: 90
[3]; [19]
  Plant response rating, Foxtail, Giant: 100
[3]; [20]
  Plant response rating, Foxtail, Giant: 100
[4]
  Plant response rating, Barnyardgrass (0 to 100 scale, 0 is no effect, 100 is complete control): 70
[5]; [17]
  Barnyardgrass plant response rating: 90
[5]; [18]
  Barnyardgrass plant response rating: 90
[5]; [19]
  Plant response rating, Barnyardgrass: 90
[5]; [20]
  Plant response rating, Barnyardgrass: 100
[6]; [17]
  Crabgrass, Large plant response rating: 80
[6]; [18]
  Crabgrass, Large plant response rating: 90
[6]; [19]
  Plant response rating, Crabgrass, Large: 100
[6]; [20]
  Plant response rating, Crabgrass, Large: 100
[7]; [13]
  Pigweed plant response rating: 100
[7]; [14]
  Pigweed plant response rating: 100
[7]; [15]
  Plant response rating, Pigweed: 100
[7]; [16]
  Plant response rating, Pigweed: 100
[8]; [17]
  Corn plant response rating: 20
[8]; [18]
  Corn plant response rating: 50
[8]; [19]
  Plant response rating, Corn: 20
[8]; [20]
  Plant response rating, Corn: 50
[9]
  Plant response rating, Ducksalad (0 to 100 scale, 0 is no effect, 100 is complete control): 100
[10]; [13]
  Wheat plant response rating: 20
[10]; [14]
  Wheat plant response rating: 40
[10]; [15]
  Plant response rating, Wheat: 10
[10]; [16]
  Plant response rating, Wheat: 40
[11]
  Plant response rating, Rice (0 to 100 scale, 0 is no effect, 100 is complete control): 60
[12]; [15]
  Plant response rating, Morningglory: 50
[12]; [16]
  Plant response rating, Morningglory: 80

## Cc1cnccc1Oc1nn(-c2ccc(F)cc2)nc1C [Compound 87]
[1]
  Plant response rating, Sedge, Umbrella (0 to 100 scale, 0 is no effect, 100 is complete control): 50
[2]; [13]
  Velvetleaf plant response rating: 0
[2]; [14]
  Velvetleaf plant response rating: 0
[2]; [15]
  Plant response rating, Velvetleaf: 0
[2]; [16]
  Plant response rating, Velvetleaf: 0
[3]; [17]
  Foxtail, Giant plant response rating: 0
[3]; [18]
  Foxtail, Giant plant response rating: 0
[3]; [19]
  Plant response rating, Foxtail, Giant: 0
[3]; [20]
  Plant response rating, Foxtail, Giant: 0
[4]
  Plant response rating, Barnyardgrass (0 to 100 scale, 0 is no effect, 100 is complete control): 0
[5]; [17]
  Barnyardgrass plant response rating: 0
[5]; [18]
  Barnyardgrass plant response rating: 0
[5]; [19]
  Plant response rating, Barnyardgrass: 0
[5]; [20]
  Plant response rating, Barnyardgrass: 0
[6]; [17]
  Crabgrass, Large plant response rating: 0
[6]; [18]
  Crabgrass, Large plant response rating: 0
[6]; [19]
  Plant response rating, Crabgrass, Large: 0
[6]; [20]
  Plant response rating, Crabgrass, Large: 0
[7]; [13]
  Pigweed plant response rating: 0
[7]; [14]
  Pigweed plant response rating: 0
[7]; [15]
  Plant response rating, Pigweed: 0
[7]; [16]
  Plant response rating, Pigweed: 0
[8]; [17]
  Corn plant response rating: 0
[8]; [18]
  Corn plant response rating: 0
[8]; [19]
  Plant response rating, Corn: 0
[8]; [20]
  Plant response rating, Corn: 0
[9]
  Plant response rating, Ducksalad (0 to 100 scale, 0 is no effect, 100 is complete control): 0
[10]; [13]
  Wheat plant response rating: 0
[10]; [14]
  Wheat plant response rating: 0
[10]; [15]
  Plant response rating, Wheat: 0
[10]; [16]
  Plant response rating, Wheat: 0
[11]
  Plant response rating, Rice (0 to 100 scale, 0 is no effect, 100 is complete control): 0
[12]; [13]
  Morningglory plant response rating: 0
[12]; [14]
  Morningglory plant response rating: 0
[12]; [15]
  Plant response rating, Morningglory: 0
[12]; [16]
  Plant response rating, Morningglory: 0

## Cc1cc(Oc2nn(-c3ccc(F)cc3)nc2C)ccn1 [Compound 135]
[1]
  Plant response rating, Sedge, Umbrella (0 to 100 scale, 0 is no effect, 100 is complete control): 0
[2]; [13]
  Plant response rating, Velvetleaf: 10
[2]; [14]
  Velvetleaf plant response rating: 30
[2]; [21]
  Plant response rating, Velvetleaf: 0
[2]; [22]
  Plant response rating, Velvetleaf: 0
[3]; [17]
  Foxtail, Giant plant response rating: 0
[3]; [18]
  Foxtail, Giant plant response rating: 10
[3]; [23]
  Plant response rating, Foxtail, Giant: 0
[3]; [24]
  Plant response rating, Foxtail, Giant: 0
[4]
  Plant response rating, Barnyardgrass (0 to 100 scale, 0 is no effect, 100 is complete control): 0
[5]; [17]
  Barnyardgrass plant response rating: 0
[5]; [18]
  Barnyardgrass plant response rating: 10
[5]; [23]
  Plant response rating, Barnyardgrass: 0
[5]; [24]
  Plant response rating, Barnyardgrass: 0
[6]; [17]
  Crabgrass, Large plant response rating: 10
[6]; [18]
  Crabgrass, Large plant response rating: 20
[6]; [23]
  Plant response rating, Crabgrass, Large: 0
[6]; [24]
  Plant response rating, Crabgrass, Large: 0
[7]; [13]
  Plant response rating, Pigweed: 20
[7]; [14]
  Pigweed plant response rating: 50
[7]; [21]
  Plant response rating, Pigweed: 0
[7]; [22]
  Plant response rating, Pigweed: 0
[8]; [17]
  Corn plant response rating: 10
[8]; [18]
  Corn plant response rating: 20
[8]; [23]
  Plant response rating, Corn: 0
[8]; [24]
  Plant response rating, Corn: 0
[9]
  Plant response rating, Ducksalad (0 to 100 scale, 0 is no effect, 100 is complete control): 0
[10]; [13]
  Plant response rating, Wheat: 0
[10]; [14]
  Wheat plant response rating: 0
[10]; [21]
  Plant response rating, Wheat: 0
[10]; [22]
  Plant response rating, Wheat: 0
[11]
  Plant response rating, Rice (0 to 100 scale, 0 is no effect, 100 is complete control): 0
[12]; [13]
  Plant response rating, Morningglory: 0
[12]; [14]
  Morningglory plant response rating: 10
[12]; [21]
  Plant response rating, Morningglory: 0
[12]; [22]
  Plant response rating, Morningglory: 0
